According to ChEMBL document CHEMBL3616376, “Anti-proliferative activity of Monensin and its tertiary amide derivatives” (Bioorg Med Chem Lett, 2015):

How the values were obtained:
[1] = Selectivity index, ratio of IC50 for mouse BALB/3T3 cells to IC50 for human MV4-11 cells; type: functional
[2] = Selectivity index, ratio of IC50 for mouse BALB/3T3 cells to IC50 for human LoVo/Dx cells; type: functional
[3] = test system: MV4-11; assay: Antiproliferative activity against human MV4-11 cells; type: functional, cell-based
[4] = test system: LoVo; assay: Resistance index, ratio of IC50 for human LoVo/DX cells to IC50 for human LoVo cells; type: functional
[5] = test system: LoVo; assay: Antiproliferative activity against human LoVo cells; type: functional, cell-based
[6] = Selectivity index, ratio of IC50 for mouse BALB/3T3 cells to IC50 for human LoVo cells; type: functional
[7] = test system: BALB/3T3; assay: Cytotoxicity against mouse BALB/3T3 cells; type: cell-based
[8] = Antiproliferative activity against human LoVo/DX cells; type: functional, cell-based

Q: Which “Ratio IC50” value [1] does the source give for `CCN(CC)C(=O)[C@@H](C)[C@H](OC)[C@H](C)[C@H]1O[C@@]2(CC[C@@](C)([C@H]3CC[C@@](CC)([C@@H]4O[C@@H]([C@H]5O[C@@](O)(CO)[C@H](C)C[C@@H]5C)C[C@@H]4C)O3)O2)C[C@H](O)[C@H]1C` here?
A: The value was 5.17.

Q: What about the “Ratio IC50” value [2] of the same molecule?
A: Its value is 6.07.

Q: And the IC50 [3]?
A: Its IC50 is 5.44 µM.

Q: And the “Ratio IC50” value [4]?
A: The value was 0.43.

Q: And the IC50 [5]?
A: The IC50 was 10.7 µM.

Q: And the “Ratio IC50” value [6]?
A: Its value is 2.63.

Q: And the IC50 [7]?
A: The IC50 was 28.1 µM.

Q: What about the IC50 [8] of the same molecule?
A: The IC50 was 4.63 µM.

Q: With `CCCN(CCC)C(=O)[C@@H](C)[C@H](OC)[C@H](C)[C@H]1O[C@@]2(CC[C@@](C)([C@H]3CC[C@@](CC)([C@@H]4O[C@@H]([C@H]5O[C@@](O)(CO)[C@H](C)C[C@@H]5C)C[C@@H]4C)O3)O2)C[C@H](O)[C@H]1C` as the molecule, how does the “Ratio IC50” value [1] read?
A: The value was 1.3.

Q: What about the “Ratio IC50” value [2] of the same molecule?
A: Its value is 1.27.

Q: And the IC50 [3]?
A: The IC50 was 5.96 µM.

Q: What about the “Ratio IC50” value [4] of the same molecule?
A: Its value is 1.4.

Q: What about the IC50 [5] of the same molecule?
A: Its IC50 is 4.35 µM.

Q: And the “Ratio IC50” value [6]?
A: The value was 1.78.

Q: What about the IC50 [7] of the same molecule?
A: The IC50 was 7.73 µM.

Q: What about the IC50 [8] of the same molecule?
A: The IC50 was 6.09 µM.

Q: What does the source list for `CC[C@@]1([C@@H]2O[C@@H]([C@H]3O[C@@](O)(CO)[C@H](C)C[C@@H]3C)C[C@@H]2C)CC[C@H]([C@]2(C)CC[C@]3(C[C@H](O)[C@@H](C)[C@@H]([C@@H](C)[C@@H](OC)[C@H](C)C(=O)N(CCOC)CCOC)O3)O2)O1`?
A: Ratio IC50 [1]: 1.53; Ratio IC50 [2]: 4.16; IC50 [3]: 27.5 µM; Ratio IC50 [4]: 0.28; IC50 [5]: 36.6 µM; Ratio IC50 [6]: 1.15; IC50 [7]: 42 µM; IC50 [8]: 10.1 µM

Q: With `CC[C@@]1([C@@H]2O[C@@H]([C@H]3O[C@@](O)(CO)[C@H](C)C[C@@H]3C)C[C@@H]2C)CC[C@H]([C@]2(C)CC[C@]3(C[C@H](O)[C@@H](C)[C@@H]([C@@H](C)[C@@H](OC)[C@H](C)C(=O)N4CCNCC4)O3)O2)O1` as the molecule, how does the “Ratio IC50” value [1] read?
A: Its value is 10.19.

Q: And the “Ratio IC50” value [2]?
A: The value was 1.6.

Q: What about the IC50 [3] of the same molecule?
A: The IC50 was 3.24 µM.

Q: And the “Ratio IC50” value [4]?
A: The value was 2.39.

Q: And the IC50 [5]?
A: Its IC50 is 8.65 µM.

Q: And the “Ratio IC50” value [6]?
A: Its value is 3.82.

Q: What about the IC50 [7] of the same molecule?
A: Its IC50 is 33 µM.

Q: What about the IC50 [8] of the same molecule?
A: Its IC50 is 20.7 µM.

Q: Which “Ratio IC50” value [1] does the source give for `CC[C@@]1([C@@H]2O[C@@H]([C@H]3O[C@@](O)(CO)[C@H](C)C[C@@H]3C)C[C@@H]2C)CC[C@H]([C@]2(C)CC[C@]3(C[C@H](O)[C@@H](C)[C@@H]([C@@H](C)[C@@H](OC)[C@H](C)C(=O)N4CCOCC4)O3)O2)O1` here?
A: Its value is 19.78.

Q: And the “Ratio IC50” value [2]?
A: Its value is 10.21.

Q: What about the IC50 [3] of the same molecule?
A: Its IC50 is 2.51 µM.

Q: And the “Ratio IC50” value [4]?
A: The value was 0.25.

Q: What about the IC50 [5] of the same molecule?
A: Its IC50 is 19.8 µM.

Q: And the “Ratio IC50” value [6]?
A: The value was 2.5.

Q: And the IC50 [7]?
A: Its IC50 is 49.6 µM.

Q: What about the IC50 [8] of the same molecule?
A: The IC50 was 4.86 µM.

Q: Which “Ratio IC50” value [1] does the source give for `CC[C@@]1([C@@H]2O[C@@H]([C@H]3O[C@@](O)(CO)[C@H](C)C[C@@H]3C)C[C@@H]2C)CC[C@H]([C@]2(C)CC[C@]3(C[C@H](O)[C@@H](C)[C@@H]([C@@H](C)[C@@H](OC)[C@H](C)C(=O)N(Cc4ccccc4)Cc4ccccc4)O3)O2)O1` here?
A: The value was 3.99.

Q: And the “Ratio IC50” value [2]?
A: Its value is 3.46.

Q: What about the IC50 [3] of the same molecule?
A: Its IC50 is 3.28 µM.

Q: What about the “Ratio IC50” value [4] of the same molecule?
A: The value was 1.02.

Q: And the IC50 [5]?
A: Its IC50 is 3.71 µM.

Q: And the “Ratio IC50” value [6]?
A: The value was 3.53.

Q: And the IC50 [7]?
A: Its IC50 is 13.1 µM.

Q: What about the IC50 [8] of the same molecule?
A: The IC50 was 3.78 µM.

Q: Which results are given for `COc1cccc2c1C(=O)c1c(O)c3c(c(O)c1C2=O)C[C@@](O)(C(=O)CO)C[C@@H]3O[C@H]1C[C@H](N)[C@H](O)[C@H](C)O1` [DOXORUBICIN]?
A: Ratio IC50 [2]: 0.08; Ratio IC50 [4]: 23.62; IC50 [5]: 0.28 µM; Ratio IC50 [6]: 1.89; IC50 [7]: 0.53 µM; IC50 [8]: 6.73 µM

Q: Which results are given for `CC[C@@]1([C@@H]2O[C@@H]([C@H]3O[C@@](O)(CO)[C@H](C)C[C@@H]3C)C[C@@H]2C)CC[C@H]([C@]2(C)CC[C@]3(C[C@H](O)[C@@H](C)[C@@H]([C@@H](C)[C@@H](OC)[C@H](C)C(=O)O)O3)O2)O1` [MONENSIN]?
A: Ratio IC50 [1]: 232.11; Ratio IC50 [2]: 34.25; IC50 [3]: 0.09 µM; Ratio IC50 [4]: 0.56; IC50 [5]: 1.09 µM; Ratio IC50 [6]: 19.17; IC50 [7]: 20.9 µM; IC50 [8]: 0.61 µM
